Consider one molecule from patent US7374890B2, “Methods for identifying compounds that modulate ΔTRα2 activity” (University of Massachusetts, priority 2000, dated 2008).

Molecules are shown by their SMILES.

Assay [1] deals with cerebellar granule neurons. Description: release of FM1-43-loaded synaptic vesicles from cerebellar granule neurons under continuous stimulus. The format is cell-based, rat. The conditions noted are these: 10 nM hormone; continuous stimulation by 50 mM KCl; vs no hormone controls; first order kinetics assumed. Here is the method: Granule neurons were grown for 7 days and rendered hormone free by growth in serum-free medium as detailed above. Coverslips were then placed in a perfusion chamber, mounted on the stage of a laser scanning confocal microscope and perfused at 1 ml/min at 25° C. with perfusion buffer (119 mM NaCl, 2.5 mM KCl, 2 mM CaCl2, 2 mM MgCl2, 25 mM HEPES (pH 7.4), 30 mM glucose, and […] AP-5). The effects of different hormones on synaptic vesicle trafficking were then determined. […] Depolarizing KCl was then removed from the perfusion buffer and the cells were exposed to FM1-43 for an additional 30 seconds to insure complete loading of recycling synaptic vesicles. Loaded cells were then washed free of dye and the cells were perfused for ten minutes at rest.
Images of a single field of neuronal fibers were then taken immediately before adding a second depolarizing solution (perfusion buffer containing 50 mM KCl) and at one and two minutes after beginning the continuous stimulation by 50 mM KCl. Thirty to forty-five individual FM1-43 labeled nerve terminals were identified in the baseline images (taken prior to depolarization) and the change in fluorescence (DF) for each nerve terminal determined at the one and two minute time points. FIGS. 11A and 11B show the results of analysis of the hormone specificity of synaptic vesicle trafficking (FIG. 11A) and the influence of individual myo5a mutants (FIG. 11B) on synaptic vesicle transport in granule neurons.
To evaluate the role of myo5a in synaptic vesicle transport, three different myo5a constructs were introduced into the neurons by replication-deficient adenoviral vectors (Δmyo5a^tail(MyoV^tail), Δmyo5a^c-term(MyoV^1830)and ΔMyo5a^CC(MyoV^cc) see FIG. 5) as described above. […] Neurons were infected with purified Ad5-constructs (MOI=10) 48 hours prior to the synaptic vesicle trafficking study, and allowed to recover in hormone (T4) supplemented medium. […] This modest influence of the VBD mutant on synaptic vesicle retention is likely to be due to the loss of the kinesin-binding domain that limits its delivery to nerve terminals.

Assay [2] deals with binding of p29^GFP vesicles to F-actin. Description: modified in vitro actin binding assay with p29^GFP-labeled vesicles. The note with it: 0-100 nM, 20 minutes at 37° C.; read-out: EC50, increase in quantity of p29^GFP bound to F-actin. It is filed as biochemical, rat. Here is the method:
To define the specific region(s) of the myosin V tail that interact with the p29 vesicle, a series of deletion mutations were created based on the dominant negative effect of exogenous myosin V tail on p29 vesicle binding. Competition analysis of the myosin V deletion mutations on T4-dependent binding of p29 vesicles to F-actin was performed using a modified in vitro assay in which a GFP-tagged p29 fusion protein (p29^GFP) replaced the radioaffinity labeled native p29 (Farwell et al., 1990, J. Biol. Chem. 265:18546-18553; Farwell et al., 1993, J. Biol. Chem. 268:5055-5062). This allowed direct evaluation of the binding of fluorescent vesicles to F-actin without affinity radiolabeling of the p29 and subsequent SDS-PAGE analysis.
Specific fluorescence at 510 nm (excitation, 488 nm) was then determined in the resuspended Triton-insoluble pellets.
To determine if the myosin V tail could be captured by the p29^GFP vesicle, an exogenous myosin V^tail was introduced into astrocytes constitutively expressing p29^GFP by infection with Ad5-ΔMyo V^tail virus particles and examined the effects of T4 on the binding of the myosin V^tail to immunopurified p29^GFP vesicles. Astrocytes expressing p29^GFP were grown in serum-free media and treated for 16 hours with 1 mM bt2cAMP and 100 nM hydrocortisone. A separate pool of astrocytes was treated in serum-free media supplemented with 10 μM retinoic acid. Cells were collected by scraping, and lysed by two freeze-thaw cycles. […] Triton-soluble (vesicle) and Triton-insoluble (F-actin) fractions were separated by microflige centrifugation. Triton pellets were resuspended in 300 μl of PBS and fluorescence at 510 nm (excitation 488 nm) determined and relative fluorescence was reported as arbitrary units. Cells were treated with 10 nM T4 for twenty minutes and a Triton-soluble supernatant was prepared. Vesicles containing the p29^GFP were immunoprecipitated by anti-GFP IgG (2 μg/ml) and protein in the immunoprecipitates were resolved by SDS-PAGE. Immunoblot analysis of vesicle-associated myosin V was performed using the anti-myosin V antibody directed against the C-terminus.
The quantity of each mutant protein synthesized was determined by [^35 S]-methionine incorporation. Astrocytes expressing p29^GFP were grown in serum-free media and treated for 16 hours with […] bt2cAMP and 100 nM hydrocortisone. p29^GFP V-lysate and F-lysate were prepared as described herein. 100 μg aliquots of p29^GFP V-lysate and F-lysate were pre-incubated, in triplicate, for 20 minutes at 37° C. in the presence of individual Δ myosin V mutant proteins (˜2-3 pmol polypeptide/50 μl mixture) were added to the actin-binding assay and pre-incubated for 20 minutes at 37° C. T4 (10 nM) was then added, the mixtures incubated for 20 minutes at 37° C., and F-actin bound, fluorescent p29^GFP vesicles were then isolated in the Triton-insoluble pellet.
V lysates prepared from astrocytes over-expressing p29^GFP were pre-incubated for 30 minutes at room temperature with antisera raised against ΔTRα2, ΔTRα1, the C-terminus of MyoV (encoded by MyoV^tail, FIG. 5), the coiled-coil region of MyoV (encoded by MyoV^coil-coil, FIG. 5) and GFP (green fluorescent protein). T4 (10 nM) and actin fiber-containing F-lysate was then added, the mixtures incubated at 37° C. for 20 minutes, and the Triton-insoluble fraction isolated by centrifugation.

In assay [3] the target is ΔTRα1 (Rattus norvegicus, UniProt P63059). In words: [125I]rT3 displacement from cell-free translated ΔTRα1. The format is binding. The conditions noted are these: cell-free translated polypeptide. An excerpt: ΔTRα1 and ΔTRα2 polypeptides were synthesized by cell-free translation of appropriate segments of the rat ΔTRα1 and ΔTRα2 cDNA using the coupled transcription-translation kit from Promega® (TNT) according to the manufacturer's instructions.
Chain of ΔTRα1 (P63059 256-370, stated change not applied): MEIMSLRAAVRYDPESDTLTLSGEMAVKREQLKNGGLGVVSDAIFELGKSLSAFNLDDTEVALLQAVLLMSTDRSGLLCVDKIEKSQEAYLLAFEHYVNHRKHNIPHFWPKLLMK

`N[C@@H](Cc1cc(I)c(Oc2cc(I)c(O)c(I)c2)c(I)c1)C(=O)O` [T4, thyroxine]: in assay [1], the “decrease of the rate of FM1-43 release” value is listed as 75%. Also, the concentration giving a half-maximal response (EC50) in assay [2] is roughly 0.5 nM. The Kd in assay [3] fell in the range of 0.3 to 1 nM.

What is called EC50 is the concentration that produces a half-maximal response. Broadly, the Kd is a measure of binding affinity in units of concentration. Read a high Kd as lower affinity.
